Data as given in PMC5033595, “The Effectiveness of Natural Diarylheptanoids against Trypanosoma cruzi: Cytotoxicity, Ultrastructural Alterations and Molecular Modeling Studies” (PLoS ONE, 2016).
pIC50: −log10 of the molar value. Read-outs that look alike come from different tables or passages of the source. Values belong to the compound of their own block, whether it stands above or below them.

Experiments:
[1] = tested on: T. cruzi epimastigotes (Dm28c strain); assay: Flow cytometry analysis of the cell cycle (DNA content); type: cell-based, Trypanosoma cruzi; conditions: 48 h
Procedure: The cultures treated with CUR, DMC and BDMC at a concentration of 100 μM led to an accumulation of, respectively, 45%, 52% and 40% of cells in the G2 phase, while in the non-treated cells, G2 population was 20%. The ability to arrest cells in the G2/M phase is a characteristic of microtubule-interacting agents. For this reason, we used paclitaxel as positive control, a known microtubule drug that is active against Trypanosomatidae organisms. Consistently with its action on microtubules, paclitaxel promoted an accumulation of 57% of cells in the G2 phase (Fig 9). Thus, the effects of curcuminoids in the cell cycle can be explained, at least partially, by the disturbance of microtubules, in agreement with the mechanism of interaction with tubulin proposed by the electron microscopy experiments. The arising of sub-G1 peaks possibly correspond to apoptotic cells, what is more prominent in paclitaxel than in the curcuminoids treated cultures and the small sub-G1populations indicate that curcuminoids promote low apoptosis (Fig 9).
Fig 9 Percentage of cells in different phases of cell cycle. Cells were treated with CUR and DMC at 10, 50 and 100 μM concentrations and with 100 μM BDMC. Paclitaxel (20 μM) was employed as positive control, and DMSO 0.02% as negative control. Results are the mean of the triplicates with standard deviation represented by error bars. Statistical significance relative to control * P<0.05, ** P<0.01 and *** P<0.001. The data shown were obtained from three independent experiments.
Epismatigotes forms of T. cruzi (Dm28c strain) were grown at 28°C in BHI medium at a concentration of 2x10^6 cells.mL^-1 in 12-well culture plates (TPP™, Switzerland). Test compounds (CUR, DMC and BMDC) were added in triplicate at concentrations of 10, 50 and 100 μM. The controls used were the vehicle (DMSO 0.02%) and paclitaxel at 20 μM concentration. After 48 h of incubation, parasites were fixed in ethanol 70% for 30 min at -20°C. Next, cells were centrifuged at 200 rcf for 8 min and washed with PBS. Then, the samples were incubated for 10 min with a permeabilization buffer (0.2 M Na2HPO4 and 0.005% Triton-X, pH 7.8). Finally, cells were centrifuged at 200 rcf for 8 min and stained in a solution of 50 μg.mL^-1 propidium iodide (PI) and 0.2 μg.mL^-1 RNAse for 30 min at room temperature. DNA content was analyzed measuring PI fluorescence in a BD […] cytometer (Becton Dickinson Company, USA) at 488 nm excitation wavelength and 585/40 nm emission filter.
Supplementary file pone.0162926.s006.tif: S6 Fig Representative fluorescence histograms showing DNA content of cell-cycle phases (Sub-G1, G1, S and G2) of parasites (Dm28c strain). […]

[2] = tested on: Sterol 14α-demethylase (CYP51); assay: Sterol content (lanosterol/ergosterol ratio) of treated epimastigotes by RP-HPLC; type: cell-based, Trypanosoma cruzi
Procedure: Since the detachment of the flagellar membrane was reported in T. cruzi and L. amazonensis treated with sterol biosynthesis inhibitors, the results obtained in microscopy study led us to investigate the sterol content of epimastigotes treated with CUR. Sterol 14α-demethylase (CYP51) is the enzyme involved in conversion of lanosterol to ergosterol in the parasite cell by oxidative removal of the sterol 14α-methyl group, being a key step in the biosynthesis of cell membrane 14 α-demethylated sterols and consequently in the maintenance of the cell viability. Thus, this enzyme is a promising target for chemotherapy of Chagas disease. The method reported by Pinto and co-workers for steroid determination on fungi was adapted to T. cruzi epimastigotes. After saponification followed by n-hexane extraction of a T. cruzi epimastigote pellet cultivated in the presence of two different concentrations of CUR, the organic layer was concentrated and submitted to RP-HPLC analysis (as shown in S5 Fig). […] It seems that in both treatments the parasite membrane-cytoskeleton linkage has been compromised.
6x10^6 epimastigotes of T. cruzi (Dm28c strain) were grown for 7 days in 30mL of BHI culture medium at 26°C. Some cultures were treated with curcumin (CUR, 5 and 10 μM), posaconazole (0.05 and 0.1 μM). The cultures were submitted to centrifugation at 2100 rpm for 10 minutes. […]

[3] = tested on: T. cruzi epimastigotes (Dm28c strain); assay: Anti-epimastigote effect (proliferation/survival, counting of viable forms); type: cell-based, Trypanosoma cruzi; conditions: for activity on proliferation/survival of epimastigotes (in words): 100, 50, 25 and 2 μM; for pIC50: read-out: IC50 T. cruzi
Procedure: The four natural compounds (CUR, DMC, BDMC and CC) were evaluated on the proliferation/survival of T. cruzi epimastigotes (Dm28c strain) in four different concentrations (100, 50, 25 and 2 μM). The parasites were cultivated for 7 days in BHI (Brain Heart Infusion) medium supplemented with 10% (v/v) fetal bovine serum. Controls were incubated solely and with 0.02% DMSO and the cultures were readily incubated with the natural compounds. Mobile epimastigote forms were considered as viable forms, and were counted on Neubauer chambers using phase contrast microscopy.
Epimastigotes of T. cruzi (Dm28c strain) were cultured at 27°C in Bacto™ Brain Heart infusion (BHI, Becton Dickinson Company, USA) supplemented with 10 μg.mL^-1 hemin, 0.02 g.L^-1 folic acid (from Sigma-Aldrich, USA) and 10% (v/v) of heat inactivated fetal bovine serum (FCS, Gibco/Life technologies).
Epimastigotes forms of T. cruzi, Dm28c strain (2x10^5 cells.mL^-1), were grown for 7 days in BHI culture medium at 26°C. Some cultures were treated with curcumin (CUR), demethoxycurcumin (DMC), bisdemethoxycurcumin (BDMC) or cyclocurcumin (CC) at concentrations of 100, 50, 25 and 2 μM. Viable forms were counted in Neubauer chambers under phase contrast microscopy using 40X objectives. Data representing three independent experiments.
Supplementary file pone.0162926.s002.tif: S2 Fig T. cruzi epimastigotes (Dm28c strain) were cultivated for 7 days in BHI (Brain Heart Infusion) culture medium supplemented with hemin, folic acid and 10% fetal bovine serum at 26°C, and readily treated with CUR, DMC, BDMC and CC at the indicated concentrations ranging from 2 to 100μM. Viable forms were counted on Neubauer chambers under phase microscopy at the seventh day. The data presented were obtained from three representative independent experiments. (TIF) Click here for additional data file.

MCF-7 tumor cells = tested on: MCF-7 tumor cells; set-up: method as in PMID 9714342; conditions: cited from earlier work
[4] = tested on: Peritoneal macrophages (Mø); type: cell-based; conditions: murine peritoneal macrophages, 48 h, trypan blue
Procedure: (§1) The natural products have been subjected to a cytotoxicity assay on two distinct murine cell types. These compounds were tested upon macrophages (Mø), which are host cells during T. cruzi infection and splenocytes as lymphocytes are highly sensitive to external agents. The maintenance of cell viability at presence of the curcuminoids may indicate their low toxicity to mammalian cells. Peritoneal macrophages harvested from Balb/c mice were treated for 48 hours with concentrations of each test substance (S3 Fig). Splenocyte viability assays were performed in cells obtained from BALB/c mice and grown from a 5x10^5 cells.mL^-1 suspension (S4 Fig). For both cell types, viability was assessed by the trypan blue dye exclusion method, because colorimetric methods such as XTT were not suitable due to influence of the curcumin chromophoric properties. The results obtained on the evaluation of CUR, DMC, BDMC and CC against T. cruzi epimastigotes as well as the results of two host cell types treated with a 100 μM concentration of each compound are summarized in Table 1. […]
Supplementary file pone.0162926.s003.tif: S3 Fig Peritoneal macrophages obtained from BALB/c mice were cultured in triplicates at concentration of 5x10^5cells.mL^-1. […] Cell viability was assessed by exclusion method using trypan blue. […]

Splenocytes = type: cell-based; conditions: murine splenocytes, 48 h, trypan blue
Procedure: as §1, with “properties.” for “properties. The results obtained on the evaluation of CUR, DMC, BDMC and CC against T. cruzi epimastigotes as well as the results of two host cell types treated with a 100 μM concentration of each compound are summarized in Table 1.”
Splenic lymphocytes were obtained from male BALB/c mice and plated at 5x10^5 cells.mL^-1 in triplicate. […] Viability was evaluated by the exclusion method using trypan blue and the data shown is representative of three independent experiments.
Supplementary file pone.0162926.s004.tif: S4 Fig Lymphocytes were obtained from the spleen of BALB/c mice and cultivated at concentration of 5x10^5 cells.mL^-1. […] Cell viability was assessed by exclusion method using trypan blue. […]

[5] = Trypanosoma cruzi, 168 h, epimastigotes, Dm28c strain, 7 days

Compound: CC(=O)O[C@H]1C(=O)[C@@]2(C)[C@H]([C@H](OC(=O)c3ccccc3)[C@]3(O)C[C@H](OC(=O)[C@H](O)[C@@H](NC(=O)c4ccccc4)c4ccccc4)C(C)=C1C3(C)C)[C@]1(OC(C)=O)CO[C@@H]1C[C@@H]2O [paclitaxel, reference compound]
cells in the G2 phase ([1]; 20 μM, positive control): 57%

lanosterol/ergosterol ratio vs untreated control ([2]; posaconazole 0.05 and 0.1 μM, positive control): significant increase
Compound: CC[C@@H]([C@H](C)O)n1ncn(-c2ccc(N3CCN(c4ccc(OC[C@@H]5CO[C@@](Cn6cncn6)(c6ccc(F)cc6F)C5)cc4)CC3)cc2)c1=O [posaconazole, reference compound]

Compound: COc1cc(/C=C/C(=O)CC(=O)/C=C/c2ccc(O)c(OC)c2)ccc1O [CUR, Curcumin]
lanosterol/ergosterol ratio vs untreated control ([2]; CUR 5 and 10 μM, 7 days): no significant difference | activity on proliferation/survival of epimastigotes (in words) ([3]; 7 days): active | pIC50 ([3]; Trypanosoma cruzi, 168 h): 4.99 | cells in the G2 phase ([1]; 100 μM, non-treated cells 20%): 45%

Compound: COc1cc(/C=C/C2=CC(=O)CC(c3ccc(O)c(OC)c3)O2)ccc1O (centres unmarked) [CC, cyclocurcumin]
activity on proliferation/survival of epimastigotes (in words) ([3]; 7 days): inactive | pIC50 [3, 5]: < 4.00 | inhibition of MCF-7 tumor cells proliferation (MCF-7 tumor cells): inactive

Compound: O=C(/C=C/c1ccc(O)cc1)CC(=O)/C=C/c1ccc(O)cc1 [BDMC, bisdemethoxycurcumin]
activity on proliferation/survival of epimastigotes (in words) ([3]; 7 days): active | pIC50 [3, 5]: 4.34 | cells in the G2 phase ([1]; 100 μM, non-treated cells 20%): 40%

Compound: demethoxycurcumin [DMC]
LD50 Mø [4]: > 100 µM | LD50 Splenocytes (Splenocytes): > 100 µM | activity on proliferation/survival of epimastigotes (in words) ([3]; 7 days): active | pIC50 ([3]; epimastigotes, Dm28c strain, 7 days): 4.96 | cells in the G2 phase ([1]; 100 μM, non-treated cells 20%): 52%
